In patent US9216986B1, “Quinoline derivatives as PDE10A enzyme inhibitors” (H. Lundbeck A/S, priority 2011, dated 2015):

Columns and labels:
[1] = target: PDE10A enzyme (Homo sapiens (Human), UniProt Q9Y233); assay: PDE10A inhibition assay; type: biochemical; settings: tritium labeled cAMP 5 nM
Procedure: Active PDE10A enzyme is prepared in a number of ways for use in PDE assays (Loughney, K. et al. Gene 1999, 234, 109-117; Fujishige, K. et al. Eur J Biochem. 1999, 266, 1118-1127 and Soderling, S. et al. Proc. Natl. Acad. Sci. 1999, 96, 7071-7076). PDE10A can be expressed as full-length proteins or as truncated proteins, as long as they express the catalytic domain. PDE10A can be prepared in different cell types, for example insect cells or E. coli. An example of a method to obtain catalytically active PDE10A is as follows: The catalytic domain of human PDE10A (amino acids 440-779 from the sequence with accession number NP 006652) is amplified from total human brain total RNA by standard RT-PCR and is cloned into the BamH1 and Xho1 sites of the pET28a vector (Novagen). Expression in coli is performed according to standard protocols. Briefly, the expression plasmids are transformed into the BL21(DE3) E. coli strain, and 50 mL cultures inoculated with the cells allowed to grow to an OD600 of 0.4-0.6 before protein expression is induced with 0.5 mM IPTG. Following induction, the cells are incubated overnight at room temperature, after which the cells are collected by centrifugation. Cells expressing PDE10A are resuspended in 12 mL (50 mM TRIS-HCl-pH8.0, 1 mM MgCl2 and protease inhibitors). The cells are lysed by sonication, and after all cells are lysed, TritonX100 is added according to Novagen protocols.
A PDE10A assay may for example, be performed as follows: The assay is performed in 60 uL samples containing a fixed amount of the relevant PDE enzyme (sufficient to convert 20-25% of the cyclic nucleotide substrate), a buffer (50 mM HEPES7.6; 10 mM MgCl2; 0.02% Tween20), 0.1 mg/ml BSA, 225 pCi of ^3H-labelled cyclic nucleotide substrate, tritium labeled cAMP to a final concentration of 5 nM and varying amounts of inhibitors. Reactions are initiated by addition of the cyclic nucleotide substrate, and reactions are allowed to proceed for one hr at room temperature before being terminated through mixing with 15 uL 8 mg/mL yttrium silicate SPA beads (Amersham). The beads are allowed to settle for one hr in the dark before the plates are counted in a Wallac 1450 Microbeta counter. The measured signal can be converted to activity relative to an uninhibited control (100%) and IC50 values can be calculated using the XIfit extension to EXCEL.

[2] = system: rats; settings: cited from earlier work
[3] = system: rats; settings: cited from earlier work; remark: listed apart in the source
[4] = system: rats; settings: cited from earlier work; remark: listed apart in the source

Chain of PDE10A enzyme (Q9Y233 716-1055): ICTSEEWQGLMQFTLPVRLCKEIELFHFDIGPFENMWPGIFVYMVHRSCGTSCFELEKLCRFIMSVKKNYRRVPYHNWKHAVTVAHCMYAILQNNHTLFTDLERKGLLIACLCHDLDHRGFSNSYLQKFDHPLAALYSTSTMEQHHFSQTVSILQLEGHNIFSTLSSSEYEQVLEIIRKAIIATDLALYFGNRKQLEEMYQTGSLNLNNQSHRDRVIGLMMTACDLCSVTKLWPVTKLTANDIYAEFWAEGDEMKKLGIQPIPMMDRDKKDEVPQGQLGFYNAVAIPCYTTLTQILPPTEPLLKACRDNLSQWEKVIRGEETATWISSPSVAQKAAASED

Row | SMILES | IC50 [1] [nM] | further results
1 | Cc1ncc(C)n2nc(CCc3ccc4cc(Cl)cc(F)c4n3)nc12 [6-Chloro-2-[2-(5,8-dimethyl-[1,2,4]triazolo[1,5-a]pyrazin-2-yl)-ethyl]-8-fluoro-quinoline] | 240 | –
2 | COc1ccc(C)n2nc(CCc3ccc4cc(F)ccc4n3)nc12 [6-Fluoro-2-[2-(8-methoxy-5-methyl-[1,2,4]triazolo[1,5-a]pyridin-2-yl)-ethyl]-quinoline] | 34 | –
3 | Cc1cc(Cl)c2nc(CCc3nc4c(C)ncc(C)n4n3)ccc2c1 [8-Chloro-2-[2-(5,8-dimethyl-[1,2,4]triazolo[1,5-a]pyrazin-2-yl)-ethyl]-6-methyl-quinoline] | 290 | –
4 | COc1ccc(C)n2nc(CCc3ccc4cccc(F)c4n3)nc12 [8-Fluoro-2-[2-(8-methoxy-5-methyl-[1,2,4]triazolo[1,5-a]pyridin-2-yl)-ethyl]-quinoline] | 150 | –
5 | COc1ccc(Cc2nccc3cc(OC)c(OC)cc23)cc1OC [Papaverine, papaverine] | – | catalepsy on its own ([2]; papaverine alone): did not cause catalepsy on its own; cataleptic effect of the D2 receptor antagonist haloperidol ([2]; together with haloperidol): potentiated the cataleptic effect; hyperactivity induced by PCP [3]: reduced hyperactivity; reduction of amphetamine induced hyperactivity [4]: insignificant

More lines, main results first:

Row | IC50 [1] [nM] | SMILES | further results
6 | 42 | Cc1ncc(C)n2nc(CCc3ccc4cc(Cl)ccc4n3)nc12 [6-Chloro-2-[2-(5,8-dimethyl-[1,2,4]triazolo[1,5-a]pyrazin-2-yl)-ethyl]-quinoline] | –
7 | 520 | Cc1ncc(C)n2nc(CCc3ccc4cc5c(cc4n3)OC(F)(F)O5)nc12 [6-[2-(5,8-Dimethyl-[1,2,4]triazolo[1,5-a]pyrazin-2-yl)-ethyl]-2,2-difluoro-[1,3]dioxolo[4,5-g]quinoline] | –
8 | 13 | Cc1ncc(C)n2nc(CCc3ccc4cc5c(cc4n3)OCO5)nc12 [6-[2-(5,8-Dimethyl-[1,2,4]triazolo[1,5-a]pyrazin-2-yl)-ethyl]-[1,3]dioxolo[4,5-g]quinoline] | –
9 | 59 | Cc1ncc(C)n2nc(CCc3ccc4cc(C#N)c(Cl)cc4n3)nc12 [7-Chloro-2-[2-(5,8-dimethyl-[1,2,4]triazolo[1,5-a]pyrazin-2-yl)-ethyl]-quinoline-6-carbonitrile] | –
10 | 52 | Cc1ncc(C)n2nc(CCc3ccc4ccc(Cl)cc4n3)nc12 [7-Chloro-2-[2-(5,8-dimethyl-[1,2,4]triazolo[1,5-a]pyrazin-2-yl)-ethyl]-quinoline] | –
11 | 4 | Cc1ncc(C)n2nc(CCc3ccc4cc5c(cc4n3)OCCO5)nc12 [7-[2-(5,8-Dimethyl-[1,2,4]triazolo[1,5-a]pyrazin-2-yl)-ethyl]-2,3-dihydro-[1,4]dioxino[2,3-g]quinoline] | –
